For one data set, the system named is p-mTOR. The data set can be described thus: Western blot of p-AKT and p-mTOR in PI3K knocked down HCC827 cells. It is filed as cell-based, human. From the text:
First, we identified potential targets of DHW‐221. […] For mTOR, DHW‐221 precisely overlapped with it and formed two more hydrogen bonds (Val2240 and Thr2245) than NVP‐BEZ235 (Figure 1A). […] Additionally, we knocked down PI3K in HCC827 cells (Figure 1C) and compared how DHW‐221, NVP‐BEZ235, and wortmannin (a PI3K inhibitor) treatments affected AKT and mTOR protein phosphorylation levels. […] Finally, western blot and immunofluorescence analysis confirmed the effect of DHW‐221 on the expression of PI3K/AKT/mTOR pathway‐related proteins both in vitro and in vivo (Figure 1E–G). […] The effects of DHW‐221 on notch pathway are provided in Result S1.
FIGURE 1 DHW‐221 is a PI3K/mTOR dual‐target inhibitor and inhibits the PI3K/AKT/mTOR signaling pathway. (A) Predicted binding modes for DHW‐221 (blue stick) with PI3Kα (PDB code: 4JPS) and mTOR (PDB code: 4JT6). Hydrogen bonds are shown as green dashed lines. Key residues for DHW‐221 and BEZ235 interaction are highlighted. (B) A cellular thermal shift assay (CETSA) and an isothermal dose–response fingerprinting (ITDRF)cetsa were used to evaluate the thermal stability of DHW‐221 bound to PI3Kα/β or mTOR. (C, D) The expression of PI3K, p‐AKT, and p‐mTOR in transfected NSCLC cells was assessed by western blot. […]

Data set [1] relates to normal cell lines (HL7702, HUVEC, and MRC-5). As to the kind of experiment: SRB cytotoxicity toward normal cell lines. In kind it is cell-based. The following applies: MRC-5, 72 h. The procedure:
(§1) To investigate the effect of DHW‐221 in vitro, SRB assay was performed. […] Additionally, the long‐term efficacy of DHW‐221 was evaluated and confirmed a better antiproliferation role than NVP‐BEZ235 (Figure 2C–E). Figure 2F investigates the concentration‐dependently inhibition of DHW‐221 on protein synthesis in cells. HCC827 xenograft models in both subcutaneous and orthotopic were used to further evaluate its antitumor potency in vivo. […] Moreover, DHW‐221 treatment could ameliorate the burden of orthotopic carcinoma to nude mice (Figure 2O, P).
Figure S3. The effect of DHW-221 on normal cell lines. SRB assay was used to determine the cytotoxicity of DHW-221 toward normal cell lines (HL7702, HUVEC, and MRC-5) at 72 h. Mean ± SD; **p < 0.01, ***p < 0.001 vs. the control. One-way analysis of variance followed by Tukey’s post hoc multiple-comparisons test.

Another data set has as its system NCI-H1993. The data set can be described thus: SRB assay NCI-H1993. It is filed as cell-based. The following applies: Homo sapiens, mean±SD. The procedure: as §1
(§2) FIGURE 2 DHW‐221 inhibits the viability of NSCLC cells both in vitro and in vivo. (A) The structure of compound DHW‐221. (B) The viability of HCC827, NCI‐H292, NCI‐H1993, and A549 cells treated with various concentrations of DHW‐221 at 24, 48, and 72 h was determined by sulforhodamine B (SRB) assay. (C–E) The growth‐inhibitory effect of DHW‐221 on HCC827 and NCI‐H1993 cells was measured using a colony formation assay (C), a lactate dehydrogenase (LDH) assay (D), and a tumor sphere formation assay (E). […] (F) OPP‐labeled protein content was detected by luciferase plate. (G) Tumor‐burdened nude mice and resected tumor samples from subcutaneous xenografts after 21 days (n = 6). (H) Subcutaneous tumor volume was measured daily with a caliper. (I) Mean tumor weight was measured to subcutaneous xenografts at the end of the experiment. (J) Subcutaneous xenografts nude mice were weighed daily on an electronic scale. (K) The index of each main organ of subcutaneous xenografts nude mice. (L) Liver and kidney function indexes subcutaneous xenografts nude mice were evaluated to predict drug toxicity. (M) Hematoxylin and eosin (H&E) staining of the liver, spleen, and kidney from subcutaneous xenografts nude mice; scale bar = 100 µm. (N) Photographs of NSCLC orthotopic tumor samples, n = 6. (O) Orthotopic xenografts nude mice were weighed daily on an electronic scale. (P) The index of lung organ was measured from orthotopic xenografts nude mice. Mean ± SD; *p < 0.05, **p < 0.01, ***p < 0.001 versus the control (model). […]

For the next data set, the system named is Notch2 and Notch3. As to the kind of experiment: Western blot of Notch pathway proteins. It is filed as cell-based, human. To be noted: HCC827 and NCI-H1993 cells, 48 h. Here is the method: The PI3K signaling pathway is interrelated with Notch. However, the regulatory relationship between Notch and PI3K/AKT/mTOR pathways is still unclear. Next, we investigated the effects of DHW-221 on Notch and its downstream critical target Hes-1.
Figure S2. DHW-221 blocks the notch pathway. HCC827 and NCI-H1993 cells were treated with DHW-221 or NVP-BEZ235 for 48 h following which western blotting was performed on the cell lysates. Mean ± SD; **p < 0.01, ***p < 0.001 vs. the control. One-way analysis of variance followed by Tukey’s post hoc multiple-comparisons test.

The next data set relates to HCC827 xenograft. The data set can be described thus: HCC827 xenograft models (subcutaneous and orthotopic) in nude mice. In kind it is in vivo. The procedure: as §1, §2
For the next data set, the system named is HCC827. The data set can be described thus: SRB assay HCC827. In kind it is cell-based. To be noted: Homo sapiens, mean±SD. Here is the method:
as §1, §2

The next data set has as its target mTOR kinase (Homo sapiens, UniProt P42345). As to the kind of experiment: mTOR kinase assay in vitro. In kind it is biochemical.
The next data set concerns NSCLC cells. The data set can be described thus: Cell cycle analysis by flow cytometry. It is filed as cell-based, human. To be noted: 48 h, concentration-dependently. From the text:
The PI3K/AKT/mTOR pathway is strongly linked to the regulation of cell cycle progression and apoptosis during cell proliferation.[6], [7] […] Meanwhile, the expression of endogenous cyclins in G0/G1 phase was detected by western blot, confirming that DHW‐221 regulated the cell cycle (Figure 3B). Apoptosis is crucial for anticancer drugs to kill cancer cells.[7] […] Finally, the proapoptotic effects of DHW‐221 were confirmed by western blot analysis of apoptosis‐related protein expression both in vitro and in vivo (Figure 3G–I).
FIGURE 3 DHW‐221 induces cell cycle arrest and cell apoptosis in NSCLC both in vitro and in vivo. (A) DHW‐221 and NVP‐BEZ235 were detected by flow cytometry for 48 h. The raw histogram is shown at the top and the quantification of specific cell cycle stages at the bottom. (B) Western blot analysis of the expression levels of cell cycle‐related proteins in HCC827 and NCI‐H1993 cells after 48 h of treatment with the specified concentrations of DHW‐221 and NVP‐BEZ235. (C) Hoechst 33342 staining results. Apoptotic cells are bright blue; scale bar, 50 µm. […] Green fluorescence indicates decreased mitochondrial membrane potential, red fluorescence indicates normal mitochondrial membrane potential; scale bar, 100 µm. […] (G–I) The expression levels of apoptosis‐related proteins in NSCLC cells (G, H) and tumor tissues (I) were detected by western blot. […]

In another data set the test system is NCI-H292. As to the kind of experiment: SRB assay NCI-H292. In kind it is cell-based. The following applies: Homo sapiens, mean±SD. The procedure:
as §1, §2

The nature of the next data set: Pharmacokinetics in mice. In kind it is in vivo. To be noted: mouse, plasma, 10 mg/kg; for MRT inf: read-out: MRTinf_obs. Here is the method: ^a Values are the average of three runs. Vehicle: DMSO:ethanol:saline=3:100:897. ^b Dose:10 mg/kg. T1/2, half-life; Cmax, maximum concentration; Tmax, time of maximum concentration; AUCall, area under the plasma concentration time curve.

In the next data set the test system is A549. The data set can be described thus: SRB assay A549. In kind it is cell-based. To be noted: Homo sapiens, mean±SD. The procedure:
as §1, §2

Like-named read-outs stand apart in the source and are kept apart here.

For the molecule `Cn1c(=O)n(-c2ccc(C(C)(C)C#N)cc2)c2c3cc(-c4cnc5ccccc5c4)ccc3ncc21` [NVP‐BEZ235, reference compound], the “p-mTOR expression compared with wortmannin” value in the data set on p-mTOR is “significantly decreased”.

As for `COc1ncc(-c2ccc3ncn(-c4ccc(OCCO)cc4)c3c2)cc1NS(=O)(=O)c1ccc(F)cc1F` [DHW-221], in [1], the “effect on normal cells” value is listed as “without affecting the normal cells”. The IC50 in the data set with NCI-H1993 (24h, n=3, read-out: IC50 NCI-H1993 24h) stood at 3230 ± 1290 nM; in the data set on NCI-H1993 (48h, n=3, read-out: IC50 NCI-H1993 48h) it was 762 ± 83 nM; in the data set with NCI-H1993 (72h, n=3, read-out: IC50 NCI-H1993 72h), 117 ± 54 nM; in the data set on HCC827 (24h, n=3, read-out: IC50 HCC827 24h) it was 8330 ± 1450 nM; in the data set on HCC827 (48h, n=3, read-out: IC50 HCC827 48h), 970 ± 127 nM; with HCC827 (72h, n=3, read-out: IC50 HCC827 72h) it was 32 ± 18 nM. In addition, the IC50 against mTOR kinase is 3.9 nM; in the data set on NCI-H292 (24h, n=3, read-out: IC50 NCI-H292 24h), 7320 ± 2420 nM; in the data set with NCI-H292 (48h, n=3, read-out: IC50 NCI-H292 48h) it was 253 ± 149 nM; in the data set on NCI-H292 (72h, n=3, read-out: IC50 NCI-H292 72h), 26 ± 3 nM; in the data set on A549 (24h, n=3, read-out: IC50 A549 24h) it was 7140 ± 1240 nM; in the data set on A549 (48h, n=3, read-out: IC50 A549 48h), 893 ± 288 nM. The IC50 in the data set on A549 (72h, n=3, read-out: IC50 A549 72h) amounted to 372 ± 86 nM. Also, in the data set on p-mTOR, the “p-mTOR expression compared with wortmannin” value was “significantly decreased”. For the same molecule, in the data set on Notch2 and Notch3, the “expression of Notch2 and Notch3” value is recorded as “had no effect”. Besides, in the data set on HCC827 xenograft (HCC827 subcutaneous and orthotopic xenografts, nude mice), the tumor growth entry was “apparently inhibited tumor growth”. For the same molecule, the alanine aminotransferase concentration entry in the data set with HCC827 xenograft (subcutaneous xenograft nude mice, high dose) is “increased at high dose”. Besides, the body weight entry in the data set on HCC827 xenograft (xenograft nude mice) is on record as “without affecting body weight”. Moreover, the cell cycle arrest result in the data set on NSCLC cells is given as “arrested at G0/G1 phase”. Moreover, the figures for the AUC in the data set “Pharmacokinetics in mice” (iv) and in the data set “Pharmacokinetics in mice” (po) were 262 ± 75.7 µg·h/mL and 176 ± 51.1 µg·h/mL, respectively. The Cmax came out at 67400 ± 8540 ng/mL in the data set “Pharmacokinetics in mice” (iv) and 11800 ± 3400 ng/mL in “Pharmacokinetics in mice” (po). The time to peak (Tmax) in “Pharmacokinetics in mice” (iv) came out at 0.083 h; in “Pharmacokinetics in mice” (po) it was 3 ± 1.7 h. The half-life in “Pharmacokinetics in mice” (iv) was 3.7 ± 0.2 h; in the data set “Pharmacokinetics in mice” (po), 7.1 ± 0.9 h. In addition, the MRT inf in the data set “Pharmacokinetics in mice” (iv) is 4.7 ± 0.3 h; in “Pharmacokinetics in mice” (po), 11.4 ± 0.3 h. The bioavailability in the data set “Pharmacokinetics in mice” (po vs iv, read-out: F (oral bioavailability)) is 67.5%.

The values above are taken from publication PMC8473641, “Dual blocking of PI3K and mTOR signaling by DHW‐221, a novel benzimidazole derivative, exerts antitumor activity in human non‐small cell lung cancer” (Clinical and Translational Medicine, 2021).
